Laboratory results as given in patent US7087420B1, “Microbial β-glucuronidase genes, gene products and uses thereof” (Cambia, priority 1997, dated 2006).

Tests used:
yeast strain InvSc1 = assay: Growth of transformed yeast colonies on expression plates with tunicamycin; settings: tunicamycin 5, 10, and 20 μg/ml
Experimental: Yeast strain InvSc1 (mat α his3-Δ1 leu2 trp1-289 ura3-52) from Invitrogen (Carlsbad, Calif.) is transformed with the E. coli GUS and Staphylococcus GUS plasmids indicated in the table below. Transformants are plated on both selection media (minimal media supplemented with His, Leu, Trp, and 2% glucose as a carbon source to suppress the expression of the gene driven by the gal1 promoter) and expression media (media supplemented with His, Leu, Trp, 1% raffinose, 1% galactose as carbon source and with 50 μg/ml X-GlcA).
(§1) To determine whether the N-glycosylation site has a deleterious effect, on secretion, yeast colonies are streaked on expression plates containing X-GlcA and from 0.1 to 20 μg/ml of tunicamycin (to inhibit all N-glycosylation).

[1] = chromophore released from pNPG; cited from earlier work
yeast colonies = assay: Yeast colonies on X-GlcA expression plates containing tunicamycin; type: cell-based; settings: tunicamycin 5, 10, and 20 μg/ml
Experimental: as §1

[2] = system: Staphylococcus β-glucuronidase (GUS^Stp, Staph GUS), wild type, SEQ ID NO: 18 (DNA SEQ ID NO: 1); assay: Inhibition of Staphylococcus GUS by end product glucuronic acid; type: biochemical
Experimental: GUS^Stp enzyme activity is also resistant to inhibition by detergents. Enzyme activity assays are measured in the presence of varying amounts of SDS, Triton® X-100, or sarcosyl. […] In SDS, the enzyme still had substantial activity (60–75% activity). In addition, GUS^Stp is not inhibited by the end product of the reaction. Activity is determined normally or in the presence of 1 or 10 mM glucuronic acid. No inhibition is seen at either 1 or 10 mM glucuronic acid (FIG. 11). The enzyme is also assayed in the presence of organic solvents, dimethylformamide (DMF) and dimethylsulfoxide (DMSO), and high concentrations of NaCl (FIG. 12).

[3] = molecular target: T1, E. coli β-glucuronidase (E. coli GUS, GUS^Eco), wild type, SEQ ID NO: 23 (Escherichia coli, UniProt P05804); settings: background statement, no concentration; cited from earlier work
T1 construct: pNPG substrate; functional homotetramer
T1 sequence (P05804 whole entry): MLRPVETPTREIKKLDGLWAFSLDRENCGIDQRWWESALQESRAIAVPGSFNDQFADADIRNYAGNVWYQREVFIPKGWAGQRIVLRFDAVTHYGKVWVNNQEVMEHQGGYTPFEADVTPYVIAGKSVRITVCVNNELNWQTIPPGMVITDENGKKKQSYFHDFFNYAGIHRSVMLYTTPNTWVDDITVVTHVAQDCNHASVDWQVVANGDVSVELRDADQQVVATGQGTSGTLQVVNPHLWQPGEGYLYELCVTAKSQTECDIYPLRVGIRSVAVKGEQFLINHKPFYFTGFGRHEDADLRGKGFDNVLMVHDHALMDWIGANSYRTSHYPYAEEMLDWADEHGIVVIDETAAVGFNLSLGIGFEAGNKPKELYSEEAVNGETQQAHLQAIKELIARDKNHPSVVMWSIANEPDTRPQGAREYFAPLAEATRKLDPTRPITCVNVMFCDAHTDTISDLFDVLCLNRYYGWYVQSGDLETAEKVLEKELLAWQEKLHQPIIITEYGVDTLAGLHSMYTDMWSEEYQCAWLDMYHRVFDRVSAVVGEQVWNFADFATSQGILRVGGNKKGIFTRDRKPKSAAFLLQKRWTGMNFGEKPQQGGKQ

Millin rice plants = settings: MUG 1 mM in water
Experimental: Seeds of T0 plants, which are the primary transformed plants, from pTANG86.1/2/3/4/5/6 (see Table 7 below) transformed plants, seeds of pCAM1301 (E. coli GUS with N358-Q change to remove N-glycosylation signal sequence) transformed plants, or untransformed Millin rice seeds are germinated in water containing 1 mM MUG or 50 μg/mL X-GlcA with or without hygromycin (for nontransformed plants). Resulting plants are observed for any reduced growth due to the presence of MUG, X-GlcA.

[4] = system: Staphylococcus β-glucuronidase (GUS^Stp, Staph GUS), wild type, SEQ ID NO: 18 (DNA SEQ ID NO: 1); assay: Kinetics of pNPG hydrolysis by Staphylococcus GUS (spectrophotometric p-nitrophenol release); type: biochemical
Experimental: The thermal stability of GUS^Stp and E. coli GUS enzymes are determined at 65° C., using a substrate that can be measured by spectrophotometry, for example. One such substrate is p-nitrophenyl β-D-glucuronide (pNPG), which when cleaved by GUS releases the chromophore p-nitrophenol. At a pH greater than its pKa (approximately 7.15), the ionized chromophore absorbs light at 400–420 nm, therefore appears in the yellow range of visible light. Briefly, reactions are performed in 50 mM Na3PO4 pH 7.0, 10 mM 2-ME, 1 mM EDTA, 1 mM pNPG, and 0.1% Triton® X-100 at 37° C. The reactions are terminated by the addition of 0.4 ml of 2-amino-2-methylpropanediol, and absorbance measured at 415 nm against a substrate blank. Under these conditions, the molar extinction coefficient of p-nitrophenol is assumed to be 14,000: One unit is defined as the amount of enzyme that produces 1 nmole of product/min at 37° C.
Turnover number is calculated as nmoles of pNPG converted to p-nitrophenol per min per μg of purified protein.

rice seeds = assay: Growth of rice plants germinated in water containing glucuronide substrate; type: in vivo; settings: 50 μg/mL X-GlcA in germination water

For tunicamycin [listing 1 of 2 here], the “Yeast colony growth (toxicity)” value (yeast strain InvSc1) was “do not grow”.

For `O=[N+]([O-])c1ccc(O)cc1` [p-nitrophenol], the pKa [1] is listed as “approximately 7.15”.

In the case of tunicamycin [listing 2 of 2 here], the “growth of yeast colonies” value (yeast colonies) is reported as “do not grow”.

In the case of `O=C(O)[C@H]1OC(O)[C@H](O)[C@@H](O)[C@@H]1O` (stereo partly drawn) [glucuronic acid], the “Inhibition by glucuronic acid” value ([2]; 1 mM glucuronic acid (FIG. 11)) is reported as “No inhibition”, the “Inhibition by glucuronic acid” value ([2]; 10 mM glucuronic acid (FIG. 11)) is reported as “No inhibition” and the “Inhibition by glucuronic acid (summary statement)” value ([2]; unlike E. coli GUS, FIG. 11) is reported as “not substantially inhibited”. The “Inhibition by end product (glucuronic acid)” value [3] was “inhibited”.

For `Cc1cc(=O)oc2cc(O[C@@H]3O[C@H](C(=O)O)[C@@H](O)[C@H](O)[C@H]3O)ccc12` [MUG, 4-methylumbelliferyl β-D-glucuronide], the “Effect on roots of rice plants (reduced growth)” value (Millin rice plants) was “somewhat stunted”.

For `O=C(O)[C@H]1O[C@@H](Oc2ccc([N+](=O)[O-])cc2)[C@H](O)[C@@H](O)[C@@H]1O` [pNPG, p-nitrophenyl β-D-glucuronide], the “Vmax relative to E. coli GUS” value ([4]; GUS^Stp vs E. coli GUS, 37° C.) was “about the same”, the “Turnover number relative to E. coli GUS” value ([4]; GUS^Stp vs E. coli GUS, 37° C. (FIG. 8)) was “approximately the same as E. coli GUS” and the Vmax ([4]; Staph GUS, substrate pNPG, 37° C.) was 80 nmol/min/µg.

With `O=C(O)[C@H]1O[C@@H](Oc2c[nH]c3ccc(Br)c(Cl)c23)[C@H](O)[C@@H](O)[C@@H]1O` [X-GlcA, 5-bromo-4-chloro-3-indolyl β-D-glucuronide] the “toxic effects / reduced growth of plants” value (rice seeds) was “No toxic effects”.
